Among the test systems are M14 melanoma; A549 NSCLC; DU-145 prostate; PC-3 prostate; HOP-92 NSCLC; OVCAR-3 ovarian; SW-620 colon; SK-MEL-2 melanoma; MOLT-4 leukemia; OVCAR-4 ovarian; OVCAR-5 ovarian; HCT-116 colon; SNB-19 CNS; KM12 colon; CAKI-1 renal; TK-10 renal; RXF 393 renal; COLO 205 colon; LOX IMVI melanoma.
Assay in all cases: NCI anticancer screen, dose series, 48 h

Experimental findings from PubChem BioAssay (NCI) are described below.

Each structure is given as a SMILES string.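 Interpolation was linear, between the two tested concentrations surrounding the appropriate level; five concentrations were tested over 48 hours in 96-well plates. At the TGI there is no net growth.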

In the case of `COc1cc2c(cc1OC)C1C(O)C(OC)C=C3CC[N+](C)(C2)C31` (stereo unspecified), the TGI with M14 melanoma, with A549 NSCLC, with DU-145 prostate, with PC-3 prostate, in the assay on HOP-92 NSCLC and in the assay with OVCAR-3 ovarian was above 100 µM in each case. For the same compound, the TGI with SW-620 colon, with SK-MEL-2 melanoma, with MOLT-4 leukemia, in the assay with OVCAR-4 ovarian, in the assay with OVCAR-5 ovarian and with HCT-116 colon was above 100 µM each time. In addition, the TGI in the assay with SNB-19 CNS, in the assay with KM12 colon, with CAKI-1 renal, in the assay on TK-10 renal, with RXF 393 renal and in the assay on COLO 205 colon was above 100 µM in each case.

As for `CC1=CC2(O)OC3(CC2=C(C)C)C(C)CCC13` (stereo unspecified), the TGI with LOX IMVI melanoma, with M14 melanoma, in the assay on A549 NSCLC, in the assay with DU-145 prostate, in the assay with HOP-92 NSCLC and in the assay with OVCAR-3 ovarian was above 100 µM in each case. For the same compound, the TGI with SW-620 colon, in the assay with SK-MEL-2 melanoma, in the assay on MOLT-4 leukemia, in the assay on OVCAR-4 ovarian, in the assay on OVCAR-5 ovarian and in the assay with HCT-116 colon was above 100 µM throughout. Besides, the TGI in the assay with SNB-19 CNS, with KM12 colon, with CAKI-1 renal, in the assay with TK-10 renal, in the assay on RXF 393 renal and in the assay on COLO 205 colon was above 100 µM in each case.

Consider `COc1ccc(OC)c(NC(=O)C(=O)Nn2c(=S)[nH]c3ccccc3c2=O)c1`, for which the TGI with LOX IMVI melanoma, with M14 melanoma, in the assay with A549 NSCLC, in the assay with PC-3 prostate, in the assay on HOP-92 NSCLC and in the assay on OVCAR-3 ovarian was above 100 µM in each case. The TGI in the assay on SW-620 colon, in the assay on SK-MEL-2 melanoma, in the assay with MOLT-4 leukemia, with OVCAR-4 ovarian, with OVCAR-5 ovarian and in the assay on HCT-116 colon was above 100 µM each time. Further, the TGI in the assay with SNB-19 CNS, in the assay with KM12 colon, with CAKI-1 renal, with TK-10 renal and in the assay on RXF 393 renal was above 100 µM each time.

For the compound `CCCC(=O)N/S(=N/S(=O)(=O)c1ccc(Cl)cc1)C(Cl)(Cl)Cl` (stereo unspecified), the TGI with M14 melanoma, with A549 NSCLC, in the assay with DU-145 prostate, in the assay with PC-3 prostate, in the assay on OVCAR-3 ovarian and with SW-620 colon was above 100 µM in each case. Besides, the TGI in the assay with SK-MEL-2 melanoma, in the assay on MOLT-4 leukemia, in the assay with OVCAR-5 ovarian, in the assay on HCT-116 colon, in the assay on SNB-19 CNS and in the assay on KM12 colon was above 100 µM in each case. The TGI in the assay on TK-10 renal and in the assay with RXF 393 renal was above 100 µM throughout.

As to `O=C1/C(=C/c2ccc(Cl)cc2)NC(=S)N1CN1CCOCC1`, the TGI with LOX IMVI melanoma, in the assay with M14 melanoma, in the assay on A549 NSCLC, in the assay on DU-145 prostate, with PC-3 prostate and in the assay on HOP-92 NSCLC was above 100 µM each time. The TGI in the assay with OVCAR-3 ovarian, in the assay on SW-620 colon, with SK-MEL-2 melanoma, with MOLT-4 leukemia, in the assay on OVCAR-4 ovarian and with OVCAR-5 ovarian was above 100 µM in each case. Also, the TGI in the assay with HCT-116 colon, with SNB-19 CNS, in the assay with KM12 colon, with TK-10 renal and in the assay with COLO 205 colon was above 100 µM in each case.

Regarding `CO/C(=N\N=C\c1ccc(OC)cc1OC)c1ccncc1`, the TGI in the assay with LOX IMVI melanoma, in the assay with A549 NSCLC, in the assay with PC-3 prostate, in the assay on SW-620 colon, in the assay with SK-MEL-2 melanoma and with MOLT-4 leukemia was above 10 µM each time. The TGI in the assay with OVCAR-5 ovarian, with HCT-116 colon, in the assay with SNB-19 CNS, in the assay with KM12 colon, with TK-10 renal and in the assay with RXF 393 renal was above 10 µM throughout. Moreover, the TGI in the assay on COLO 205 colon is above 10 µM.

Regarding `c1ccc2[nH]c3[nH]c4[nH]c5ccccc5[nH]c4[nH]c3[nH]c2c1`, the TGI in the assay with LOX IMVI melanoma, in the assay on M14 melanoma, in the assay on A549 NSCLC, in the assay with DU-145 prostate, in the assay on PC-3 prostate and in the assay with OVCAR-3 ovarian was above 100 µM each time. Further, the TGI with SW-620 colon, with SK-MEL-2 melanoma, in the assay with MOLT-4 leukemia, with OVCAR-5 ovarian, with HCT-116 colon and in the assay on SNB-19 CNS was above 100 µM in each case. Besides, the TGI with KM12 colon, with CAKI-1 renal, with TK-10 renal, in the assay with RXF 393 renal and in the assay with COLO 205 colon was above 100 µM throughout.

As to `CCOC(=O)C1=C(O)c2ccccc2C(=O)C1=O`, the TGI in the assay with LOX IMVI melanoma, with M14 melanoma, in the assay on A549 NSCLC, in the assay with HOP-92 NSCLC, with OVCAR-3 ovarian and in the assay on SW-620 colon was above 100 µM in each case. In addition, the TGI in the assay on SK-MEL-2 melanoma, with MOLT-4 leukemia, in the assay with OVCAR-4 ovarian, in the assay on OVCAR-5 ovarian, in the assay on HCT-116 colon and in the assay on SNB-19 CNS was above 100 µM throughout. Moreover, the TGI in the assay with KM12 colon, in the assay on CAKI-1 renal, in the assay on TK-10 renal, in the assay on RXF 393 renal and in the assay on COLO 205 colon was above 100 µM throughout.
